# Test results as given in US7196110B2, “N-substituted tricyclic 3-aminopyrazoles as inhibitors for the treatment of cell proliferative disorders” (Janssen Phamaceutica N.V., priority 2002, dated 2007).
# Biological target: T1, PDGF-receptor beta enzyme comprising the tyrosine kinase domain (Homo sapiens, UniProt P09619)
# T1 construct: from amino acid 545 to 1106 of GenBank Access NO: AAA36427
# Test: Inhibition of PDGF-receptor kinase activity (cell-free, PLC1 peptide, 33P Flashplate)
# Type: biochemical
# Conditions: PDGF-R kinase activity; for inhibition at 10 µM: compound at 10 uM, read-out: Percent Inhibition @ 10 uM; for IC50: read-out: IC50
# In short: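 The IC50 is the inhibitor level halving kinase activity relative to inhibitor-free wells, measured as 33P captured on a streptavidin-bound biotin-PLC1 peptide. The reaction ran 60 min at 30 °C in pH 8 Tris buffer with 1 mM DTT, 5 μM ATP and the 545–1106 kinase-domain enzyme.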
# T1 sequence (P09619 545-1106): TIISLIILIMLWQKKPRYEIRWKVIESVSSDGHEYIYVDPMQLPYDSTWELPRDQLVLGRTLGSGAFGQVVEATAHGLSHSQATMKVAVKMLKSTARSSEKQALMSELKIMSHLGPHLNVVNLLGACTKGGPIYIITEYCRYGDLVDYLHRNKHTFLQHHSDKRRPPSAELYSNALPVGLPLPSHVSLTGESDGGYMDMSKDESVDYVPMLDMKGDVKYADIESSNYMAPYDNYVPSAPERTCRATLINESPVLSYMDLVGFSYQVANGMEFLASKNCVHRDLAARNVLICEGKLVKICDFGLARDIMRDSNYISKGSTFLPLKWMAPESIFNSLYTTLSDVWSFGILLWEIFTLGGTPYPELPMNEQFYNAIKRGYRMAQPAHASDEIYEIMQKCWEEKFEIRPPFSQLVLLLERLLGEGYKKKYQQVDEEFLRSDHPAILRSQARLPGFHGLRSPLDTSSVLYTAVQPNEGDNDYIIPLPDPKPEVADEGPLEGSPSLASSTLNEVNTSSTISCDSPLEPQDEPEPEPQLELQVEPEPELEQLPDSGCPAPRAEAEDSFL
SMILES,inhibition at 10 µM,IC50
"COc1cc2c(cc1OC)-c1c(c(Nc3cccc(F)c3)nn1C(=O)c1c(F)cccc1F)C2 [Compound 480, (2,6-Difluoro-phenyl)-[3-(3-fluoro-Phenylamino)-6,7-dimethoxy-4H-indeno[1,2-c]pyrazol-1-yl]-methanone]",8%,–
"COc1cc2c(cc1OC)-c1c(c(Nc3cccc(F)c3)nn1C(=O)c1ccccc1F)C2 [Compound 481, (2-Fluoro-phenyl)-[3-(3-fluoro-phenylamino)-6,7-dimethoxy-4H-indeno[1,2-c]pyrazol-1-yl]-methanone]",59%,3760 nM
"COc1cc2c(cc1OC)C(C)(C)c1c-2n[nH]c1Nc1cccc(Br)c1 [Compound 485, (3-Bromo-phenyl)-(6,7-dimethoxy-4,4-dimethyl-2,4-dihydro-indeno[1,2-c]pyrazol-3-yl)-amine]",32%,59000 nM
"COc1cc2c(cc1OC)C(C)(C)c1c-2n[nH]c1Nc1cccc(Cl)c1 [Compound 486, (3-Chloro-phenyl)-(6,7-dimethoxy-4,4-dimethyl-2,4-dihydro-indeno[1,2-c]pyrazol-3-yl)-amine]",34.5%,15800 nM
"COc1cc2c(cc1OC)C(C)(C)c1c-2n[nH]c1Nc1cccc(F)c1 [Compound 487, (6,7-Dimethoxy-4,4-dimethyl-2,4-dihydro-indeno[1,2-c]pyrazol-3-yl)-(3-fluoro-phenyl)-amine]",43%,37500 nM
"COc1cccc(Nc2[nH]nc3c2C(C)(C)c2cc(OC)c(OC)cc2-3)c1 [Compound 488, (6,7-Dimethoxy-4,4-dimethyl-2,4-dihydro-indeno[1,2-c]pyrazol-3-yl)-(3-methoxy-phenyl)-amine]",33.5%,39300 nM
"CCOc1cccc(Nc2[nH]nc3c2C(C)(C)c2cc(OC)c(OC)cc2-3)c1 [Compound 489, (6,7-Dimethoxy-4,4-dimethyl-2,4-dihydro-indeno[1,2-c]pyrazol-3-yl)-(3-ethoxy-phenyl)-amine]",25.5%,–
"COc1cc2c(cc1OC)-c1c(c(Nc3cccc(F)c3)nn1Cc1ccc(OC(C)=O)cc1)C2 [Compound 498, Acetic acid 4-[3-(3-fluoro-phenylamino)-6,7-dimethoxy-4H-indeno[1,2-c]pyrazol-1-ylmethyl]-phenyl ester]",51.5%,8330 nM
"COc1cc2c(cc1OC)-c1c(c(Nc3cccc(F)c3)nn1CC(C)O)C2 (stereo not drawn) [Compound 502, 1-[3-(3-Fluoro-phenylamino)-6,7-dimethoxy-4H-indeno[1,2-c]pyrazol-1-yl]-propan-2-ol]",60.5%,54000 nM
"COC(=O)Cn1nc(Nc2cccc(F)c2)c2c1-c1cc(OC)c(OC)cc1C2 [Compound 509, [3-(3-Fluoro-phenylamino)-6,7-dimethoxy-4H-indeno[1,2-c]pyrazol-1-yl]-acetic acid methyl ester]",30.5%,–
"CCOC(=O)Cn1nc2c(c1Nc1cccc(F)c1)Cc1cc(OC)c(OC)cc1-2 [Compound 510, [3-(3-Fluoro-phenylamino)-6,7-dimethoxy-4H-indeno[1,2-c]pyrazol-2-yl]-acetic acid ethyl ester]",57%,26600 nM
"CCOC(=O)Cn1nc(Nc2cccc(F)c2)c2c1-c1cc(OC)c(OC)cc1C2 [Compound 511, [3-(3-Fluoro-phenylamino)-6,7-dimethoxy-4H-indeno[1,2-c]pyrazol-1-yl]-acetic acid ethyl ester]",51%,12500 nM
"COc1cc2c(cc1OC)-c1c(c(Nc3cccc(F)c3)nn1C(=O)NCCN)C2 [Compound 516, 3-(3-Fluoro-phenylamino)-6,7-dimethoxy-4H-indeno[1,2-c]pyrazole-1-carboxylic acid (2-amino-ethyl)-amide]",68.5%,10000 nM
"COc1cc2c(cc1OC)-c1c(c(Nc3cccc(F)c3)nn1C(=O)NCCN(C)C)C2 [Compound 517, 3-(3-Fluoro-phenylamino)-6,7-dimethoxy-4H-indeno[1,2-c]pyrazole-1-carboxylic acid (2-dimethylamino-ethyl)-amide]",75.5%,1790 nM

# More lines, in order of falling IC50, values ahead:
inhibition at 10 µM,IC50,SMILES
87%,1740 nM,"COc1cc2c(cc1OC)-c1nn(Cc3ccc(OC(C)=O)cc3)c(Nc3cccc(F)c3)c1C2 [Compound 499, Acetic acid 4-[3-(3-fluoro-phenylamino)-6,7-dimethoxy-4H-indeno[1,2-c]pyrazol-2-ylmethyl]-phenyl ester]"
83%,1540 nM,"COc1cc2c(cc1OC)-c1c(c(Nc3cccc(F)c3)nn1C(=O)c1ccc(Cl)cc1)C2 [Compound 494, (4-Chloro-phenyl)-[3-(3-fluoro-phenylamino)-6,7-dimethoxy-4H-indeno[1,2-c]pyrazol-1-yl]-methanone]"
86%,773 nM,"COc1cc2c(cc1OC)-c1c(c(Nc3cccc(F)c3)nn1C(=O)Oc1ccccc1Cl)C2 [Compound 513, 3-(3-Fluoro-phenylamino)-6,7-dimethoxy-4H-indeno[1,2-c]pyrazole-1-carboxylic acid 2-chloro-phenyl ester]"
94.5%,624 nM,"OCC(O)COc1cccc2c1Cc1c-2n[nH]c1NCc1c(Cl)cccc1Cl (stereo not drawn) [Compound 479, 3-[3-(2,6-Dichloro-benzylamino)-2,4-dihydro-indeno[1,2-c]pyrazol-5-yloxy]-propane-1,2-diol]"
80.5%,492 nM,"COc1cc2c(cc1OC)-c1c(c(Nc3cccc(F)c3)nn1C(=O)Oc1ccc(F)cc1)C2 [Compound 500, 3-(3-Fluoro-phenylamino)-6,7-dimethoxy-4H-indeno[1,2-c]pyrazole-1-carboxylic acid 4-fluoro-phenyl ester]"
78%,472 nM,"COc1cc2c(cc1OC)-c1c(c(Nc3cccc(F)c3)nn1C(=O)c1ccc(F)cc1)C2 [Compound 492, (4-Fluoro-phenyl)-[3-(3-fluoro-phenylamino)-6,7-dimethoxy-4H-indenol[1,2-c]pyrazol-1-yl]-methanone]"
92%,314 nM,"CCCC(=O)OCn1nc2c(c1Nc1cccc(F)c1)Cc1cc(OC)c(OC)cc1-2 [Compound 491, Butyric acid 3-(3-fluoro-phenylamino)-6,7-dimethoxy-4H-indeno[1,2-c]pyrazol-2-ylmethyl ester]"
85%,240 nM,"CCC1c2cc(OC)c(OC)cc2-c2c1c(Nc1cccc(Br)c1)nn2C(=O)COC (stereo not drawn) [Compound 514, 1-[3-(3-Bromo-phenylamino)-4-ethyl-6,7-dimethoxy-4H-indeno[1,2-c]pyrazol-1-yl]-2-methoxy-ethanone]"
87%,218 nM,"COc1cc2c(cc1OC)-c1c(c(Nc3cccc(F)c3)nn1CC(C)=O)C2 [Compound 484, 1-[3-(3-Fluoro-phenylamino)-6,7-dimethoxy-4H-indeno[1,2-c]pyrazol-1-yl]-propan-2-one]"
92%,183 nM,"CCC1c2cc(OC)c(OC)cc2-c2n[nH]c(Nc3cccc(OC)c3)c21 (stereo not drawn) [Compound 512, (4-Ethyl-6,7-dimethoxy-2,4-dihydro-indeno[1,2-c]pyrazol-3-yl)-(3-methoxy-phenyl)-amine]"
93.5%,162 nM,"Brc1cccc(Nc2[nH]nc3c2Cc2c(OCCN4CCCC4)cccc2-3)c1 [Compound 478, (3-Bromo-phenyl)-[5-(2-pyrrolidin-1-yl-ethoxy)-2,4-dihydro-indeno[1,2-c]pyrazol-3-yl]-amine]"
101%,142 nM,"CCOc1cccc(Nc2[nH]nc3c2C(C)c2cc(OCC)c(OCC)cc2-3)c1 (stereo not drawn) [Compound 504, (6,7-Diethoxy-4-methyl-2,4-dihydro-indeno[1,2-c]pyrazol-3-yl)-(3-ethoxy-phenyl)-amine]"
90%,136 nM,"CCC1c2cc(OC)c(OC)cc2-c2nn(C(=O)COC)c(Nc3cccc(Br)c3)c21 (stereo not drawn) [Compound 515, 1-[3-(3-Bromo-phenylamino)-4-ethyl-6,7-dimethoxy-4H-indeno[1,2-c]pyrazol-2-yl]-2-methoxy-ethanone]"
97%,134 nM,"CCOc1cccc(Nc2[nH]nc3c2C(CC)c2cc(OC)c(OC)cc2-3)c1 (stereo not drawn) [Compound 505, (3-Ethoxy-phenyl)-(4-ethyl-6,7-dimethoxy-2,4-dihydro-indeno[1,2-c]pyrazol-3-yl)-amine]"
90%,96 nM,"COc1cc2c(cc1OC)-c1c(c(Nc3cccc(F)c3)nn1C(=O)Oc1ccc(Cl)cc1)C2 [Compound 501, 3-(3-Fluoro-phenylamino)-6,7-dimethoxy-4H-indeno[1,2-c]pyrazole-1-carboxylic acid 4-chloro-phenyl ester]"
97%,77.7 nM,"COc1cc2c(cc1OC)-c1nn(COC(C)=O)c(Nc3cccc(F)c3)c1C2 [Compound 497, Acetic acid 3-(3-fluoro-phenylamino)-6,7-dimethoxy-4H-indeno[1,2-c]pyrazol-2-ylmethyl ester]"
103%,45.1 nM,"COc1cc2c(cc1OC)-c1nn(C(=O)Oc3ccc(F)cc3)c(Nc3cccc(F)c3)c1C2 [Compound 503, 3-(3-Fluoro-phenylamino)-6,7-dimethoxy-4H-indeno[1,2-c]pyrazole-2-carboxylic acid 4-fluoro-phenyl ester]"
97%,29.4 nM,"CNC(=O)CCCC(=O)n1nc(Nc2cccc(F)c2)c2c1-c1cc(OC)c(OC)cc1C2 [Compound 506, 5-[3-(3-Fluoro-phenylamino)-6,7-dimethoxy-4H-indeno[1,2-c]pyrazol-1-yl]-5-oxo-pentanoic acid methylamide]"
88.5%,13.6 nM,"COc1cc2c(cc1OC)-c1c(c(Nc3cccc(F)c3)nn1COC(C)=O)C2 [Compound 496, Acetic acid 3-(3-fluoro-phenylamino)-6,7-dimethoxy-4H-indeno[1,2-c]pyrazol-1-ylmethyl ester]"
